Test results reported in ChEMBL document CHEMBL1201862, “PubChem BioAssay data set” (2004).
Activity calls are given as the source filed them.

Key:
Type in all cases: functional
Hexokinase-1 = target: T1, Hexokinase-1 (Homo sapiens, UniProt P19367); assay: hexokinase 1 activity inhibitors, potency – biochemical, set 2, resazurin fluorescence coupled readout, selectivity assay for HKDC1 inhibitor project, SAR follow-up (AID 588356)
T1 sequence (P19367 whole entry): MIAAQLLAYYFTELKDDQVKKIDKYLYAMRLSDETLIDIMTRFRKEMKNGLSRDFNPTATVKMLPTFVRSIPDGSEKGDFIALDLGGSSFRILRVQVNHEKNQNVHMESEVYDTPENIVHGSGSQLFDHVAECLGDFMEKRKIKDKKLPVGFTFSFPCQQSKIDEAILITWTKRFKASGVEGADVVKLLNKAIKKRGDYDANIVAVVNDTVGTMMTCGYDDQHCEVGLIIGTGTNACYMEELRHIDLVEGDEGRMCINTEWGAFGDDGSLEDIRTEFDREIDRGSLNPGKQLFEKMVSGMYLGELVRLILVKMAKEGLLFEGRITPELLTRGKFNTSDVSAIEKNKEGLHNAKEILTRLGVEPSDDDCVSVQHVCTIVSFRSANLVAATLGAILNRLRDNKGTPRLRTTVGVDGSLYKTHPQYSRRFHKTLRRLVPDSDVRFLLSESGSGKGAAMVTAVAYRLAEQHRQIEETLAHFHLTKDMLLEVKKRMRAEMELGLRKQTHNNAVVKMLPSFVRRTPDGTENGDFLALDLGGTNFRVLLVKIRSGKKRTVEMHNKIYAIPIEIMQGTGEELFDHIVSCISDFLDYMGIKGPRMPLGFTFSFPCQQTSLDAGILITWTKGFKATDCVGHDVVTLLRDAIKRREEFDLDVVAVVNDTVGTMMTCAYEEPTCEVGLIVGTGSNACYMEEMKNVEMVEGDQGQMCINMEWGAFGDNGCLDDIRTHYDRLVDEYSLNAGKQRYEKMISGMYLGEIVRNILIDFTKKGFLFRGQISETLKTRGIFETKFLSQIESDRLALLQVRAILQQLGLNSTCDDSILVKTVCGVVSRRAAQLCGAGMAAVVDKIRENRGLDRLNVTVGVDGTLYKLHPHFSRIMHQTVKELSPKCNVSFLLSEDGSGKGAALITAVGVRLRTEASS

Hexokinase HKDC1 = target: T2, Hexokinase HKDC1 (Homo sapiens, UniProt Q2TB90); assay: inhibition of HKDC1 glucose phosphorylation – biochemical, W721R variant, dose response (AID 504729)
T2 sequence (Q2TB90 whole entry): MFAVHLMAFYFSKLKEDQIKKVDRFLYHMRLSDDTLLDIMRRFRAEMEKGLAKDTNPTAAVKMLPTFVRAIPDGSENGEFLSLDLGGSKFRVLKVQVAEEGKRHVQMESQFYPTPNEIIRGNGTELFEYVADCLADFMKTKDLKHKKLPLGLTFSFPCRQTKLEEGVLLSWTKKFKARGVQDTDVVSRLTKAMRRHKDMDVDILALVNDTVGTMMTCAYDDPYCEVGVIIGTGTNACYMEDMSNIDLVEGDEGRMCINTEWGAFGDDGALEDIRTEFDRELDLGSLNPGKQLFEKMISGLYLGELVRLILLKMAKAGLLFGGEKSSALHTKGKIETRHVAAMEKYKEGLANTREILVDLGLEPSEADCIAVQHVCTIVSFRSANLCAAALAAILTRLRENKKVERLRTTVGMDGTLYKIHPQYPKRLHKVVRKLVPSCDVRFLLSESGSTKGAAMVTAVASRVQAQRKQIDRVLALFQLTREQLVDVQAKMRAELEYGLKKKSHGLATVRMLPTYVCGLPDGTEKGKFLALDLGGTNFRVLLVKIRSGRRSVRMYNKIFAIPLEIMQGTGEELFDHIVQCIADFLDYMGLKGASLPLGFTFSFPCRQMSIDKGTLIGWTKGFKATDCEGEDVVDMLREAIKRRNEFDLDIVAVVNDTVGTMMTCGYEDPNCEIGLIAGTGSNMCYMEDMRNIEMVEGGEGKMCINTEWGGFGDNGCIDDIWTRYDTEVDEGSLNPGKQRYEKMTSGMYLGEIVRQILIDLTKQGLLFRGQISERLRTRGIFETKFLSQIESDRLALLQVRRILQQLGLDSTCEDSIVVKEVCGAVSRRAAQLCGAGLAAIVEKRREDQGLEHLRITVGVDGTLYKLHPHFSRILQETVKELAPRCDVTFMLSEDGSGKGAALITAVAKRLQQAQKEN

[1] = target: T3, Apoptotic protease-activating factor 1 (Homo sapiens, UniProt O14727)
T3 sequence (O14727 whole entry): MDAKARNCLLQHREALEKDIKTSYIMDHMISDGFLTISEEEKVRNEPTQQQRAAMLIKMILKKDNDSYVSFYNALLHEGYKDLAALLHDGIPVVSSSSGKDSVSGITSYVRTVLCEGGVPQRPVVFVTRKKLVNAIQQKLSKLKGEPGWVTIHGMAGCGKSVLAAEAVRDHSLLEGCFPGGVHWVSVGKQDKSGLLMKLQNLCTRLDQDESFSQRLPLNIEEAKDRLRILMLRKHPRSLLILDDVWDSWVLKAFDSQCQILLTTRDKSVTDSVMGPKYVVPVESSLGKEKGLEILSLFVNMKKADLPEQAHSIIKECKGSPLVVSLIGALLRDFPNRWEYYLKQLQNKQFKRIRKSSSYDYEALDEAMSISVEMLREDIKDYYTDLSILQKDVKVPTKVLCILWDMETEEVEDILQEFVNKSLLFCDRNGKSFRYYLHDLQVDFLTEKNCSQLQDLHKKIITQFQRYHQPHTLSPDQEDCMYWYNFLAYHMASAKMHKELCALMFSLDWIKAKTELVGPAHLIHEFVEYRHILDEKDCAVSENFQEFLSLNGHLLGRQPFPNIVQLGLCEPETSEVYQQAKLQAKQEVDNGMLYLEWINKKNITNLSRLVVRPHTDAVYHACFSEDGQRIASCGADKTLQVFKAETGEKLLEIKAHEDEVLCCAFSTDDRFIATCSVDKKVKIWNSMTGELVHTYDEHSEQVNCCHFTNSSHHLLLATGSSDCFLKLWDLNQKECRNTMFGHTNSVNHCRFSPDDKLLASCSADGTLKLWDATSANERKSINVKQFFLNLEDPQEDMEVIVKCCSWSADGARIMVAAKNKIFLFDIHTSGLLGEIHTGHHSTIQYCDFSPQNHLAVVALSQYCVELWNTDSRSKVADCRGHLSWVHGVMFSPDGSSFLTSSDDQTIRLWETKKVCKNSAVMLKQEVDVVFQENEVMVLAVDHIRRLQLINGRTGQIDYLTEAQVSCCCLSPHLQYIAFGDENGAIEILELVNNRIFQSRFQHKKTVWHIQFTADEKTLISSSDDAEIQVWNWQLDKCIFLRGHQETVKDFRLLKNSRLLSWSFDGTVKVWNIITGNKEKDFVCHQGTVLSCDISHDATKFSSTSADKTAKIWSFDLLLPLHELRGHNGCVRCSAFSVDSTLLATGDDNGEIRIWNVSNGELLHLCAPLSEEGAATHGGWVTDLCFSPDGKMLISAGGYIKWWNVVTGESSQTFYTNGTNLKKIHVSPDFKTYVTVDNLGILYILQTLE

| Compound | IC50 (Hexokinase-1) | IC50 (Hexokinase HKDC1) | IC50 [1] |
| --- | --- | --- | --- |
| CCc1ccc2c(c1)C(NC(C)=O)C(=O)N2CCN1CCOCC1 (stereo not drawn) | > 80 µM (inactive) | 6.27 µM (active) |  |
| COc1ccc2noc3c2c1C(=O)c1ccccc1-3 |  |  | 42.5 µM (active) |
